Like-named read-outs stand apart in the source and are kept apart here.
Test system: PnpA (His-6-PnpA; p-nitrophenol 4-monooxygenase, PnpM)
Experiment: spectrophotometric monooxygenase assay, Michaelis-Menten
Format: biochemical, Burkholderia sp. SJ98
Description: spectrophotometric monooxygenase assay, Michaelis-Menten on PnpA (His-6-PnpA; p-nitrophenol 4-monooxygenase, PnpM)

| Compound | Km | Km (fixed NADH, 0.02 mM FAD, 50 mM phosphate pH 7.4, PNP 12.5-250 µM) |
| --- | --- | --- |
| NC(=O)C1=CN([C@@H]2O[C@H](COP(=O)(O)OP(=O)(O)OC[C@H]3O[C@@H](n4cnc5c(N)ncnc54)[C@H](O)[C@@H]3O)[C@@H](O)[C@H]2O)C=CC1 [NADH] | 96 ± 7.74 µM | – |
| O=[N+]([O-])c1ccc(O)cc1 [PNP, p-nitrophenol] | – | 35.4 ± 5.95 µM |
